These results are taken from patent US7462625B2, “Gonadotropin-releasing hormone receptor antagonists and methods relating thereto” (Neurocrine Biosciences, Inc., priority 2000, dated 2008).

For the assay, the target named is T1, GnRH receptor (Homo sapiens, UniProt P30968).
T1 construct: expressed in transfected cells
T1 sequence (P30968 1-328): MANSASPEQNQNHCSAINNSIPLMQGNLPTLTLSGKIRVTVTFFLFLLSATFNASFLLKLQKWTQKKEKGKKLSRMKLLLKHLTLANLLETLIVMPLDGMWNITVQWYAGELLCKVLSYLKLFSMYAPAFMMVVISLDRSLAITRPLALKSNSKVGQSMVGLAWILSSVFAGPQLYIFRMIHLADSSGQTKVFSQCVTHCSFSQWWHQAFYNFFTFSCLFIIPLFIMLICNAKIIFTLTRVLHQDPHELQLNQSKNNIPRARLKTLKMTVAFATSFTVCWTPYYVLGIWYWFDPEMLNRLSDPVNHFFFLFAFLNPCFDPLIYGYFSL
As to the kind of experiment: GnRH receptor membrane binding assay. As to conditions: GnRH receptor membrane binding assay, [125I]-labeled GnRH peptide; read-out: Ki. On the procedure:
Radio-Iodination of GnRH Peptide
The GnRH analog is labeled by the chloramine-T method. […] The reaction is stopped by the addition of 60 μg sodium metabisulfite and the free iodine is removed by passing the iodinated mixture through a C-8 Sep-Pak cartridge (Millipore Corp., Milford, Mass.). The peptide is eluted with a small volume of 80% acetonitrile/water. […] The purified radioactive peptide is stored in 0.1% BSA/20% acetonitrile/0.1% TFA at −80° C. and can be used for up to 4 weeks.
GnRH Receptor Membrane Binding Assay
Cells stably, or transiently, transfected with GnRH receptor expression vectors are harvested, resuspended in 5% sucrose and homogenized using a polytron homogenizer (2×15 sec). Nucleii are removed by centrifugation (3000×g for 5 min.), and the supernatant centrifuged (20,000×g for 30 min, 4° C.) to collect the membrane fraction. The final membrane preparation is resuspended in binding buffer (10 mM Hepes (pH 7.5), 150 mM NaCl, and 0.1% BSA) and stored at −70° C. Binding reactions are performed in a Millipore MultiScreen 96-well filtration plate assembly with polyethylenimine coated GF/C membranes. […] The reaction is terminated after 90 minutes by application of vacuum and washing (2×) with phosphate buffered saline. Bound radioactivity is measured using 96-well scintillation counting (Packard Topcount) or by removing the filters from the plate and direct gamma counting. Ki values are calculated from competition binding data using non-linear least squares regression using the Prism software package (GraphPad Software).

Structures can show the parent of a compound that is named as a salt. Bounds are passed on as bounds.

Usually Ki stands for the dissociation constant of the complex between target and ligand, obtained from inhibition or displacement. Turning to `Cc1c(-c2ccc3c(c2)OCCO3)c(=O)n(CCN(CCC#N)Cc2cccnc2)c(=O)n1Cc1c(F)cccc1F` [9-200], the Ki is less than 100 nM.

On to `Cc1c(-c2ccc(Oc3ccccc3)cc2)c(=O)n(CCN2CCN(c3cccc(Cl)c3)CC2)c(=O)n1Cc1c(F)cccc1F` [9-40], for which the Ki was less than 100 nM.

As for `Cc1c(-c2ccc3c(c2)OCO3)c(=O)n(CCNC2CCC(C)CC2)c(=O)n1Cc1c(F)cccc1F` (centres unmarked) [9-320], the Ki is less than 100 nM.

For the compound `COc1cccc(-c2c(C)n(Cc3c(F)cccc3F)c(=O)n(CC(C)NCc3ccccn3)c2=O)c1` (centres unmarked) [9-109], the Ki is less than 100 nM.

For the compound `COc1cccc(-c2c(C)n(Cc3c(F)cccc3F)c(=O)n(CC(C)NCCCOCC(C)C)c2=O)c1` (centres unmarked) [9-19], the Ki is less than 100 nM.

Take `Cc1cccnc1CCN1CCCC1Cn1c(=O)cc(C)n(Cc2c(F)cccc2F)c1=O` (centres unmarked) [9-415]: the Ki is less than 100 nM.

`CCN1CCC(N(CC)CCn2c(=O)c(-c3cccc(OC)c3)c(C)n(Cc3c(F)cccc3F)c2=O)C1` (centres unmarked) [1-13]: the Ki is less than 100 nM.

Take `Cc1c(-c2ccc(Cl)s2)c(=O)n(C[C@H](N)c2ccccc2)c(=O)n1Cc1c(F)cccc1F` [8-75]: the Ki is less than 100 nM.

On to `Cc1c(-c2ccc(Oc3ccccc3)cc2)c(=O)n(CCN2CCN(Cc3ccc4c(c3)OCO4)CC2)c(=O)n1Cc1c(F)cccc1F` [9-35], for which the Ki was less than 100 nM.

For `Cc1c(-c2ccc3c(c2)OCO3)c(=O)n(CCNCCN(C(C)C)C(C)C)c(=O)n1Cc1c(F)cccc1F` [9-64], the inhibition constant (Ki) is less than 100 nM.

On to `CCN(CCc1ccccn1)CCn1c(=O)c(-c2cccc(OC)c2)c(C)n(Cc2c(F)cccc2F)c1=O` [1-10], for which the Ki was less than 100 nM.

Turning to `CCN(CC)CCN(C)CCn1c(=O)c(-c2ccc(C(C)C)cc2)c(C)n(Cc2c(F)cccc2F)c1=O` [9-263], the Ki was less than 100 nM.

For `COc1cccc(-c2c(C)n(Cc3c(F)cccc3F)c(=O)n(C[C@H](C)NCc3cccn3C)c2=O)c1F` [9-664], the Ki is less than 100 nM.

In the case of `CCCCN(CCCC)[C@H](C)Cn1c(=O)c(-c2cccc(OC)c2F)c(C)n(Cc2c(F)cccc2F)c1=O` [9-612], the inhibition constant (Ki) is less than 100 nM.

Take `Cc1nc(-c2c(C)n(Cc3c(F)cccc3F)c(=O)n(C[C@H](N)c3ccccc3)c2=O)cs1` [12-1]: the inhibition constant Ki is less than 100 nM.

Consider `CCC(C)NC(=O)[C@@H]1CCCN1CCn1c(=O)c(-c2cccc(OC)c2)c(C)n(Cc2c(F)cccc2F)c1=O` (some centres unmarked) [9-112], for which the Ki was less than 100 nM.

On to `COc1cccc(-c2c(C)n(Cc3c(F)cccc3F)c(=O)n(CCN3CC[C@@H](NC(C)=O)C3)c2=O)c1` [9-7], for which the Ki was less than 100 nM.

Take `CCCN(CCC)[C@@H](C)Cn1c(=O)c(-c2cccc(OC)c2F)c(C)n(Cc2c(F)cccc2F)c1=O` [9-681]: the inhibition constant (Ki) was less than 100 nM.

In the case of `Cc1c(-c2csc(Cc3ccccc3)n2)c(=O)n(C[C@H](N)c2ccccc2)c(=O)n1Cc1c(F)cccc1F` [12-5], the Ki was less than 100 nM.

On to `Cc1c(/C=C/c2ccccc2)c(=O)n(CCN(C)CCc2ccccn2)c(=O)n1Cc1c(F)cccc1F` [9-287], for which the Ki was less than 100 nM.

Regarding `COc1cccc(-c2c(C)n(Cc3c(F)cccc3F)c(=O)n(CC(C)NCc3cc(Br)cs3)c2=O)c1F` (centres unmarked) [9-622], the inhibition constant (Ki) is less than 100 nM.

With `COc1cccc(-c2c(C)n(Cc3c(F)cccc3F)c(=O)n(C[C@H](C)NCc3ccc(O)cc3)c2=O)c1F` [9-680], the Ki was less than 100 nM.

For the compound `Cc1c(-c2ccc(Oc3ccccc3)cc2)c(=O)n(CCN2CC[C@@H](NC(=O)C(F)(F)F)C2)c(=O)n1Cc1c(F)cccc1F` [9-42], the Ki is less than 100 nM.

With `Cc1c(-c2ccc(Oc3cccc(Cl)c3)cc2)c(=O)n(C[C@H](N)c2ccccc2)c(=O)n1Cc1c(F)cccc1F` [8-70], the Ki is less than 100 nM.

Regarding `COc1cccc(-c2c(C)n(Cc3c(F)cccc3F)c(=O)n(C[C@H](N)C(=O)Nc3ccccc3)c2=O)c1` [8-51], the Ki was less than 100 nM.

For the compound `Cc1c(-c2ccc3c(c2)OCCO3)c(=O)n(CCN2CCN(Cc3ccc4c(c3)OCO4)CC2)c(=O)n1Cc1c(F)cccc1F` [9-95], the Ki is less than 100 nM.

Take `COc1ccc(CCNCCn2c(=O)c(-c3ccccc3F)c(C)n(Cc3c(F)cccc3F)c2=O)cc1OC` [9-229]: the Ki was less than 100 nM.

On to `COc1cccc(-c2c(C)n(Cc3c(F)cccc3F)c(=O)n(CC(C)NCc3cc(C)c(C)o3)c2=O)c1F` (centres unmarked) [9-595], for which the Ki was less than 100 nM.

As for `COc1cccc(-c2c(C)n(Cc3c(F)cccc3F)c(=O)n(CCN3CCC(NC(=O)C(F)(F)F)C3)c2=O)c1` (centres unmarked) [7-3], the Ki was less than 100 nM.

Turning to `COc1cccc(-c2c(C)n(Cc3c(F)cccc3F)c(=O)n(C[C@H](C)NCc3ccccc3)c2=O)c1F` [9-304], the inhibitory constant (Ki) was less than 100 nM.

Take `COc1cccc(-c2c(C)n(Cc3c(F)cccc3F)c(=O)n(CC(C)NCc3cccn3C)c2=O)c1F` (centres unmarked) [9-618]: the inhibitory constant (Ki) is less than 100 nM.

With `Cc1cc(=O)n(C[C@H](N)Cc2ccccc2)c(=O)n1Cc1c(F)cccc1F` [8-7], the Ki was less than 100 nM.

Turning to `Cc1c(-c2ccc3c(c2)OCCO3)c(=O)n(CCNCC(F)(F)F)c(=O)n1Cc1c(F)cccc1F` [9-191], the Ki is less than 100 nM.

As for `Cc1c(-c2ccc(Oc3ccccc3)cc2)c(=O)n(CCNCc2cc(C(F)(F)F)cc(C(F)(F)F)c2)c(=O)n1Cc1c(F)cccc1F` [9-32], the Ki was less than 100 nM.

As for `CSc1cccc(-c2c(C)n(Cc3c(F)cccc3F)c(=O)n(C[C@H](N)c3ccccc3)c2=O)c1` [8-61], the Ki is less than 100 nM.

`Cc1c(-c2ccccc2F)c(=O)n(C[C@H](N)c2ccccc2)c(=O)n1Cc1c(F)cccc1F` [10-1, 6-Methyl-5-(2-fluorophenyl)-3-[2(R)-amino-2-phenylethyl]-1-(2,6-difluorobenzyl)uracil trifluoroacetic acid salt]: the Ki was less than 100 nM.

As to `CCCN1CCN(CCn2c(=O)c(-c3ccccc3F)c(C)n(Cc3c(F)cccc3F)c2=O)CC1` [9-240], the Ki was less than 100 nM.

For the compound `COc1ccccc1CCNCCn1c(=O)c(-c2ccc(Oc3ccccc3)cc2)c(C)n(Cc2c(F)cccc2F)c1=O` [9-215], the Ki was less than 100 nM.

On to `CN[C@H](CC(C)C)Cn1c(=O)c(-c2cccc(OC)c2F)cn(Cc2c(F)cccc2F)c1=O` [13-4], for which the Ki was less than 100 nM.

Take `COc1ccccc1CNC[C@@H](C)n1c(=O)c(-c2cccc(C)c2F)c(C)n(Cc2c(F)cccc2F)c1=O` [9-634]: the Ki is less than 100 nM.

For `Cc1c(-c2ccc3c(c2)OCO3)c(=O)n(CCN(C)CCc2ccccn2)c(=O)n1Cc1c(F)cccc1F` [3-1], the Ki was less than 100 nM.

Consider `Cc1c(-c2ccc(Oc3ccccc3)cc2)c(=O)n(CCNCc2ccc(F)cc2C(F)(F)F)c(=O)n1Cc1c(F)cccc1F` [9-145], for which the Ki is less than 100 nM.

With `Cc1ccc(Nc2nc(-c3c(C)n(Cc4c(F)cccc4F)c(=O)n(C[C@H](N)c4ccccc4)c3=O)cs2)cc1` [12-32], the Ki was less than 100 nM.

On to `COc1cccc(-c2c(C)n(Cc3c(F)cccc3F)c(=O)n(C[C@H](C)NCc3[nH]cnc3C)c2=O)c1F` [9-602], for which the Ki is less than 100 nM.

On to `Cc1c(-c2ccc(NC(=O)OCC(C)C)cc2)c(=O)n(CCN(C)CCc2ccccn2)c(=O)n1Cc1c(F)cccc1F` [6-8], for which the Ki is less than 100 nM.

For `COc1cccc(CNC[C@@H](C)n2c(=O)c(-c3cccc(OC)c3)c(C)n(Cc3c(F)cccc3F)c2=O)c1` [9-477], the Ki is less than 100 nM.

`COc1cccc(-c2c(C)n(Cc3c(F)cccc3F)c(=O)n(C[C@H](CC(C)C)N(C)C)c2=O)c1F` [9-704]: the Ki is less than 100 nM.

As for `COc1cccc(-c2c(C)n(Cc3c(F)cccc3F)c(=O)n([C@H](C)CNCc3cc(Cl)ccc3O)c2=O)c1F` [9-503], the Ki is less than 100 nM.

With `COc1ccc(-c2c(C)n(Cc3c(F)cccc3F)c(=O)n(C[C@H](N)c3ccccc3)c2=O)cn1` [8-58], the Ki was less than 100 nM.

As to `Cc1c(-c2ccc3c(c2)OCO3)c(=O)n(CCNCc2cc(C(F)(F)F)cc(C(F)(F)F)c2)c(=O)n1Cc1c(F)cccc1F` [9-63], the Ki is less than 100 nM.

Turning to `Cc1c(-c2ccc(Oc3ccccc3)cc2)c(=O)n(CCNCc2ccc([N+](=O)[O-])cc2)c(=O)n1Cc1c(F)cccc1F` [9-143], the Ki is less than 100 nM.

As to `COc1cccc(-c2c(C)n(Cc3c(F)cccc3F)c(=O)n([C@H](C)CNCc3c[nH]c4ccccc34)c2=O)c1F` [9-509], the Ki was less than 100 nM.

With `CCNC(=O)[C@@H]1CCCN1CCn1c(=O)c(-c2cccc(OC)c2)c(C)n(Cc2c(F)cccc2F)c1=O` [9-3], the inhibition constant Ki was less than 100 nM.

As for `COc1cccc(-c2c(C)n(Cc3c(F)cccc3F)c(=O)n(CC(C)NCC3CCCCC3)c2=O)c1F` (centres unmarked) [9-589], the Ki is less than 100 nM.

With `Cc1c(-c2ccc3c(c2)OCO3)c(=O)n(CCNCCN(C)C)c(=O)n1Cc1c(F)cccc1F` [9-242], the Ki is less than 100 nM.

Turning to `COc1cccc(-c2c(C)n(Cc3c(F)cccc3F)c(=O)n(CC3CCCN3)c2=O)c1` (centres unmarked) [9-26], the Ki was less than 100 nM.
